Experimental data: article PMC5041982, “Small-molecule inhibition of STAT3 in radioresistant head and neck squamous cell carcinoma” (Oncotarget, 2016)
“And” between values parts separate entries of the source, which are not always exact repeats. Equal entries are not always repeated.

Tests used:
[1] = molecular target: T1, pSTAT1 (Homo sapiens, UniProt P42224); experiment: pSTAT1 levels in UM-SCC-17B tumor xenografts (immunoblot); format: in vivo, nude mice; parameters: from tissue; host or cells: UM-SCC-17B tumour xenografts from nude mice; settings: UM-SCC-17B xenografts, p = 0.000003
T1 sequence (P42224 1-750): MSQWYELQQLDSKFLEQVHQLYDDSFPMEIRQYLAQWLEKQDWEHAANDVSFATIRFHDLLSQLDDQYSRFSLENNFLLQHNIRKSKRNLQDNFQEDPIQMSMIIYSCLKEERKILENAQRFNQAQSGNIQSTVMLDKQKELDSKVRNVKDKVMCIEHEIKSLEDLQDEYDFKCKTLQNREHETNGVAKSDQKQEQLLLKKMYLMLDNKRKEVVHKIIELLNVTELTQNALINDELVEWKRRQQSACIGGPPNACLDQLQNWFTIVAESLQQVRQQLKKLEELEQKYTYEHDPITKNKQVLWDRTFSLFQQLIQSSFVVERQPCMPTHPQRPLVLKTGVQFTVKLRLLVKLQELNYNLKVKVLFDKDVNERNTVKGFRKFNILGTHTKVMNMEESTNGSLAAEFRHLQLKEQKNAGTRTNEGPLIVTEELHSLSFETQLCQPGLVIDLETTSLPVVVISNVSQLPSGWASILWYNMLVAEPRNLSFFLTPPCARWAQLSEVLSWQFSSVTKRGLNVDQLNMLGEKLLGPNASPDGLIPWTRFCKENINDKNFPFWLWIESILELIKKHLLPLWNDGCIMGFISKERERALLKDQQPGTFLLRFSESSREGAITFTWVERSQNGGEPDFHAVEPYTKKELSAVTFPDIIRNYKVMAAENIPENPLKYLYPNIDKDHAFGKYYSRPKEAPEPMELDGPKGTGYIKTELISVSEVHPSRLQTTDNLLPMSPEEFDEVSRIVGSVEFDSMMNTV

[2] = Tumor PK (tumor vs plasma level) in nude mice bearing xenograft tumors; format: in vivo; settings: 10 mg/Kg IP, mouse, 1 hr following IP dose
Protocol: PK studies to assess tumor vs. plasma levels of C188-9 were performed in nude mice bearing xenograft tumors. Details regarding these studies are in the Supplemental Methods.
For the tumor accumulation study, 3x106, MDA- 5. Bharadwaj U, Eckols TK, Kolosov M, Kasembeli MM, MB 468 cells were sub-cutaneously injected on left flank Adam A, Torres D et al. Drug-repositioning screening of Nude (Athymic NCr-nu/nu) mice and allowed to grow identified piperlongumine as a direct STAT3 inhibitor with till 500 mm3 and then the mice were randomized into two potent activity against breast cancer. Oncogene 2014; 0.
The Control mice (n =2) were sacrificed after their tumor et al. Inhibition of 1-deoxy-D-xylulose-5-phosphate reached 500 mm3 and the mice in the treatment group reductoisomerase by lipophilic phosphonates: SAR, […]
was administered and mice were sacrificed an hour later. 7. Halling DB, Georgiou DK, Black DJ, Yang G, Fallon JL, Plasma and tumors were harvested as described before, Quiocho FA et al. Determinants in CaV1 channels that snap frozen and shipped to Apredica for analysis. regulate the Ca2+ sensitivity of bound calmodulin. J Biol […]
Plasma samples were processed with 3 volumes 8. Kim BK, Lee JW, Park PJ, Shin YS, Lee WY, Lee KA et of methanol containing internal standard. Samples were al. The multiplex bead array approach to identifying serum then centrifuged to remove precipitated protein, and the biomarkers associated with breast cancer. Breast Cancer supernatant was analyzed by LC/MS-MS. All plasma Res 2009; 11: R22. samples were compared to a calibration curve prepared 9. Kim JK, Xu Y, Xu X, Keene DR, Gurusiddappa S, Liang in mouse blank plasma. Tumor samples were first X et al. A Novel Binding Site in Collagen Type III for homogenized in 1 ml of PBS per gram of tumor tissue and Integrins {alpha}1{beta}1 and {alpha}2{beta}1. J Biol then processed in the same manner as the plasma samples. Chem 2005; 280: 32512-32520.
Tumor samples were quantified using a calibration curve 10. Li RW, Schroeder SG. Cytoskeleton remodeling and prepared in control tumor. alterations in smooth muscle contractility in the bovine Samples were analyzed by LC/MS/MS using an jejunum during nematode infection. Funct Integr Genomics Agilent 6410 mass spectrometer coupled with an Agilent 2012; 12: 35-44.
1200 HPLC and a CTC PAL chilled autosampler, all 11. Shao H, Xu X, Mastrangelo M-AA, Jing N, Cook RG, controlled by MassHunter software (Agilent). After Legge GB et al. Structural Requirements for Signal separation on a C18 reverse phase HPLC column (e.g. Transducer and Activator of Transcription 3 Binding to Zorbax Eclipse 2.1mmx50mm or Zorbax Poroshell Phosphotyrosine Ligands Containing the YXXQ Motif. J […]
acetonitrile-water gradient system, peaks were analyzed 12. […]

[3] = test system: HNSCC cell lines; experiment: Anchorage independent growth (MTT), all four cell lines; format: cell-based; settings: Homo sapiens; SCC-35, SCC-61, UM-SCC-17B, HN30; read-out: Anchorage independent growth IC50, range over all four cell lines
Protocol: GAPDH-normalized pSTAT3 or pSTAT1 values were divided by that for untreated cells and expressed in percentage. These values were plotted as a function of Log [M] compound, and IC50 values calculated using GraphPad. […] Viable cells quantitated using MTT. Relative % viability was measured by (viability after any treatment ÷ viability of untreated cells × 100) and plotted as a function of Log [M] […] C. […] Representative curves are shown.
Cells were cultured in triplicates in complete DMEM ± drug, in ultra-low attachment 96 well plates for 72 hrs or cell-culture treated plates for 48 hrs and viable cells were quantitated using MTT. Optical density (OD) was measured at 590 nm using a 96-well multi-scanner (EL-800 universal microplate reader, BioTek Inc, VT, USA). Relative % viability (viability after any treatment ÷ viability of untreated cells × 100) was plotted along Y-axis. At least 2 replicates experiments were performed and were used for IC50 calculation using GraphPad software.

Structure (SMILES): COc1ccc(S(=O)(=O)Nc2cc(-c3c(O)ccc4ccccc34)c(O)c3ccccc23)cc1 [Compound C188-9]
- Reduction of pSTAT1 levels in tumor xenografts vs vehicle control [1]: 80%
- Plasma level [2]: 1.9 mg/ml and 4.0 μM
- Tumor level [2]: 5.0 mg/ml and 10.4 μM
- Tumor: Plasma ratio [2]: 2.6
- Kp at 1 h ([2]; Nude (Athymic NCr-nu/nu), tumor/plasma, intraperitoneal, 10 mg/Kg, read-out: Tumor: Plasma ratio): ~3
- IC50 [3]: 0.7 to 14.8 µM
